Data taken from publication PMC9127657 (Bioorganic & medicinal chemistry, 2021).

Assays:
Assay type in all cases: cell-based
[1] = test system: HIV-1 NL4–3 Nanoluc-sec virus; conditions: for antiviral activity at the tested concentration: tested concentration 5 μg/mL, MT-4 cells
[2] = Cytotoxicity assay in MT-4 cells; conditions: human, uninfected MT-4 cells
MT-4 cells = test: Cytotoxicity assay in MT-4 cells; conditions: concentration required to reduce the viability of uninfected MT-4 cells by 50%; three days

Row | Molecule | antiviral activity at the tested concentration [1] | also measured
1 | COc1ccc(N(C)C(=O)[C@H](Cc2ccccc2)NS(=O)(=O)CC(=O)Nc2cc(F)cc(F)c2)cc1 [II-13e, (S)-2-((2-((3,5-difluorophenyl)amino)-2-oxoethyl)sulfonamido)-N-(4-methoxyphenyl)-N-methyl-3-phenylpropanamide] | lost their activity | –
2 | COc1ccc(N(C)C(=O)[C@H](Cc2ccccc2)NC(=O)c2cccc(S(=O)(=O)Nc3cc(F)cc(F)c3)c2)cc1 [V-25 h, (S)-3-(N-(3,5-difluorophenyl)sulfamoyl)-N-(1-((4-methoxyphenyl)(methyl)amino)-1-oxo-3-phenylpropan-2-yl)benzamide] | loss of antiviral activity | –
3 | COc1ccc(N(C)C(=O)[C@H](Cc2ccccc2)NC(=O)c2cccc(S(=O)(=O)Nc3ccc(C(F)(F)F)cc3)c2)cc1 [Compound V-25j, (S)-N-(1-((4-methoxyphenyl)(methyl)amino)-1-oxo-3-phenylpropan-2-yl)-3-(N-(4-(trifluoromethyl)phenyl)sulfamoyl)benzamide] | loss of antiviral activity | –
4 | COc1ccc(N(C)C(=O)[C@H](Cc2ccccc2)NS(=O)(=O)CC(=O)n2ncc3ccccc32)cc1 [II-13f, (S)-2-((2-(1H-indazol-1-yl)-2-oxoethyl)sulfonamido)-N-(4-methoxyphenyl)-N-methyl-3-phenylpropeanamide] | lost their activity | –
5 | COc1ccc(N(C)C(=O)[C@H](Cc2ccccc2)NC(=O)C(=O)Nc2ccc([N+](=O)[O-])cc2)cc1 [III-16f, (S)-N1-(1-((4-methoxyphenyl)(methyl)amino)-1-oxo-3-phenylpropan-2-yl)–N2-(4-nitrophenyl)oxalamide] | – | CC50 at 3 days [2]: > 10.2 µM
6 | (S)-2-((3-(2,3-dihydro-1H-pyrrolo[3,4-c]pyridine-2-carbonyl)phenyl) sulfonamido)-N-(4-methoxyphenyl)-N-methyl-3-phenylpropanamide [Compound I-10c] | – | EC50 ([1]; concentration that inhibits HIV-1NL4–3 nanoluc-sec infection of MT-4 cells by 50%, three days): > 8.76 µM; CC50 (MT-4 cells): > 8.76 µM
7 | COc1ccc(N(C)C(=O)[C@H](Cc2ccccc2)NS(=O)(=O)CC(=O)Nc2ccc3ncsc3c2)cc1 [II-13b, (S)-2-((2-(benzo[d]thiazol-6-ylamino)-2-oxoethyl)sulfonamido)-N-(4-methoxyphenyl)-N-methyl-3-phenylpropanamide] | lost their activity | –
8 | COc1ccc(N(C)C(=O)[C@H](Cc2ccccc2)NS(=O)(=O)CC(=O)N2CCc3cc([N+](=O)[O-])ccc32)cc1 [II-13 g, (S)-N-(4-methoxyphenyl)-N-methyl-2-((2-(5-nitroindolin-1-yl)-2-oxoethyl)sulfonamido)-3-phenylpropanamide] | lost their activity | –
9 | COc1ccc(N(C)C(=O)[C@H](Cc2ccccc2)NC(=O)c2cccc(S(=O)(=O)N3CCc4cc([N+](=O)[O-])ccc43)c2)cc1 [Compound V-25f, (S)-N-(1-((4-methoxyphenyl)(methyl)amino)-1-oxo-3-phenylpropan-2-yl)-3-((5-nitroindolin-1-yl)sulfonyl)benzamide] | loss of antiviral activity | –
10 | COc1ccc(N(C)C(=O)[C@H](Cc2ccccc2)NS(=O)(=O)CC(=O)N2CCc3cc(OC)ccc32)cc1 [II-13d, (S)-2-((2-(5-methoxyindolin-1-yl)-2-oxoethyl)sulfonamido)-N-(4-methoxyphenyl)-N-methyl-3-phenylpropanamide] | lost their activity | –
11 | COc1ccc(N(C)C(=O)[C@H](Cc2ccccc2)NC(=O)c2cccc(S(=O)(=O)N3CCc4ccccc43)c2)cc1 [Compound V-25d, (S)-3-(indolin-1-ylsulfonyl)-N-(1-((4-methoxyphenyl)(methyl)amino)-1-oxo-3-phenylpropan-2-yl)benzamide] | loss of antiviral activity | –
12 | COc1ccc(N(C)C(=O)[C@H](Cc2ccccc2)NC(=O)c2cccc(S(=O)(=O)N3CCc4cc(OC)ccc43)c2)cc1 [Compound V-25e, (S)-3-((5-methoxyindolin-1-yl)sulfonyl)-N-(1-((4-methoxyphenyl) (methyl)amino)-1-oxo-3-phenylpropan-2-yl)benzamide] | loss of antiviral activity | –
